Experimental data from patent EP1117659B1, “SUBSTITUTED 3-CYANOQUINOLINES AS PROTEIN TYROSINE KINASES INHIBITORS” (Wyeth Holdings Corporation, priority 1998, dated 2000).
Values after ≈ are worked out from the molar mass of the structure shown. Values joined by “and” are separate entries in the source; they are usually repeats but may differ in a detail not shown here. Equal entries are not always repeated. Where two headings read alike, the source gives them in different places.

Experiments:
[1] = target: Epithelial Cell Kinase (ECK) (Homo sapiens, UniProt P29317); assay: Inhibition of Epithelial Cell Kinase (ECK), immobilized biotinylated peptide, HRP anti-phosphotyrosine readout; assay type: biochemical; conditions: IC50, substrate phosphorylation
Epithelial Cell Kinase (ECK), sequence (P29317 24-976, species assumed): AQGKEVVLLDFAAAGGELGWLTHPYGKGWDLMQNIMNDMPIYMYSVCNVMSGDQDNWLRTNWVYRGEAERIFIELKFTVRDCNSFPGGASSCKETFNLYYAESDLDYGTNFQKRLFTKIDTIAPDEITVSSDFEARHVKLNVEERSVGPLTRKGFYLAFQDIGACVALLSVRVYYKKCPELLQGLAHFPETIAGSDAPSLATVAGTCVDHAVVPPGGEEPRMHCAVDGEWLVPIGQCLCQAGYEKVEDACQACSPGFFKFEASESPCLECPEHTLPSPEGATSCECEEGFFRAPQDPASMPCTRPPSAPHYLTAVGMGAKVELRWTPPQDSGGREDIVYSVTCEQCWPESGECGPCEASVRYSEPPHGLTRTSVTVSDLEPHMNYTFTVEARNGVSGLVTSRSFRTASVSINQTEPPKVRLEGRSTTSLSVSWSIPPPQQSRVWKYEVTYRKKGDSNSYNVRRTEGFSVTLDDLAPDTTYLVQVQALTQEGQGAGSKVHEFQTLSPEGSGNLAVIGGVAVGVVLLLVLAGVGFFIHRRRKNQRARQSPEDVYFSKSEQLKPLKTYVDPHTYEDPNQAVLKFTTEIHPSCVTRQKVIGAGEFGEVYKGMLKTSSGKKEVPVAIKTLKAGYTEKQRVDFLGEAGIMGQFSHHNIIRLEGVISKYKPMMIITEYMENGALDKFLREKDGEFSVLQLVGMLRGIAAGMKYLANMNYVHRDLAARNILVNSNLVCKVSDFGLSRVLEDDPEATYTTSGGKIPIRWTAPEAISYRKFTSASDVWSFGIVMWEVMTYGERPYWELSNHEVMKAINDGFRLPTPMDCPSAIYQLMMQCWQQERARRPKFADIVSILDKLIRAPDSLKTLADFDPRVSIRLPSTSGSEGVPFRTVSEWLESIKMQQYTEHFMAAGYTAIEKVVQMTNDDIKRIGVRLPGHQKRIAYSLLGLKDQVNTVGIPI
Procedure: In this standard pharmacological test procedure, a biotinylated peptide substrate is first immobilized on neutravidin-coated microtiter plates. The test drug, the Epithelial Cell Kinase (ECK), Mg^++, sodium vanadate (a protein tyrosine phosphatase inhibitor), and an appropriate buffer to maintain pH (7.2) are then added to the immobilized substrate-containing microtiter wells. ATP is then added to initiate phosphorylation. After incubation, the assay plates are washed with a suitable buffer leaving behind phosphorylated peptide which is exposed to horse radish peroxidase (HRP)-conjugated anti-phosphotyrosine monoclonal antibody. The antibody-treated plates are washed again and the HRP activity in individual wells is quantified as a reflection of degree of substrate phosphorylation. […] Multiple entries for a given compound indication it was tested multiple times.

3T3 = assay: Inhibition of Cancer Cell Growth as Measured by Cell Number (Sulforhodamine B); assay type: cell-based; conditions: 48 hours exposure; for IC50: Mus musculus, NIH3T3
Procedure: (§1) Human tumor cell lines were plated in 96-well plates (250 µl/well, 1-6 x 10^4 cells/ml) in RPMI 1640 medium, containing 5% FBS (Fetal Bovine Serum). […] After 48 hours exposure to test compounds, cells were fixed with trichloroacetic acid, and stained with Sulforhodamine B. After washing with trichloroacetic acid, bound dye was solubilized in 10 mM Tris base and optical density was determined using plate reader. Under conditions of the assay the optical density is proportional to the number of cells in the well. […] The test procedure is described in details by Philip Skehan et. al, J.Natl. Canc. Inst., 82, 1107-1112 (1990). […] Information about some of the cell lines used in these test procedures is available from the American Type Tissue Collection: Cell Lines and Hybridomas, 1994 Reference Guide, 8th Edition.

3T3/c-erbb2 = assay: as above; assay type: cell-based; conditions: 48 hours exposure
Procedure: as §1

MDA-MB-435 = assay: as above; assay type: cell-based, Human; conditions: 48 hours exposure; for IC50: Homo sapiens, MDA-MB-435, 48 h
Procedure: as §1

SW620 = assay: as above; assay type: cell-based, Human; conditions: 48 hours exposure; for IC50: Homo sapiens, SW-620, 48 h
Procedure: as §1

A431 = assay: as above; assay type: cell-based, Human; conditions: 48 hours exposure; for IC50: Homo sapiens, A-431, 48 h
Procedure: as §1

SK-BR3 = assay: as above; assay type: cell-based, Human; conditions: 48 hours exposure; for IC50: Homo sapiens, SK-BR-3, 48 h
Procedure: as §1

[2] = target: T1, Kinase insert Domain containing Receptor (KDR: the catalytic domain of the VEGF receptor) (Homo sapiens, UniProt P35968); assay: Inhibition of Kinase insert Domain containing Receptor (KDR), radioactive phosphorylation of Glu:Tyr copolymer; assay type: biochemical; conditions: IC50, substrate phosphorylation
T1 construct: KDR: the catalytic domain of the VEGF receptor
T1 sequence (P35968 834-1162 limits assumed): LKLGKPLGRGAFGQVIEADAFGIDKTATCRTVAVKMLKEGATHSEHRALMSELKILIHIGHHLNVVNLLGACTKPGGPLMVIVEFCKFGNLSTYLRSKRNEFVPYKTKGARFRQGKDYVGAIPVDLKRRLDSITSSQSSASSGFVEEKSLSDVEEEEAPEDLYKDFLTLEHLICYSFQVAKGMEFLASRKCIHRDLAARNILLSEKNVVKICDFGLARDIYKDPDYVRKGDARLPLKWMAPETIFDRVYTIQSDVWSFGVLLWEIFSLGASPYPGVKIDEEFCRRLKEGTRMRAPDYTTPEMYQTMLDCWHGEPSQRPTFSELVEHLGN
Procedure: In this standard pharmacological test procedure, KDR protein is mixed, in the presence or absence of a inhibitor compound, with a substrate peptide to be phosphorylated (a copolymer of glutamic acid and tyrosine, E:Y :: 4:1) and other cofactors such as Mg^++ and sodium vanadate (a protein tyrosine phosphatase inhibitor) in an appropriate buffer to maintain pH (7.2). ATP and a radioactive tracer (either P^32- or P^33- labeled ATP) is then add to initiate phosphorylation. After incubation, the radioactive phosphate associated with the acid-insoluble fraction of the assay mixture is then quantified as reflection of substrate phosphorylation. […] Multiple entries for a given compound indication it was tested multiple times.

[3] = target: Recombinant human MEK 1 (MAPKK) / recombinant human ERK2 (MAPK) (Mek-Erk) (Homo sapiens, UniProt P28482+Q02750); assay: Mitogen Activated Protein Kinase (MAPK) assay, two component coupled Mek-Erk test; assay type: biochemical
Procedure: To evaluate inhibitors of the MAP (mitogen activated protein) kinase a two component coupled standard pharmacological test procedure, which measures phosphorylation of a serine/threonine residue in an appropriate sequence in the substrate in the presence and absence of a putative inhibitor, was used. Recombinant human MEK 1 (MAPKK) was first used to activate recombinant human ERK2 (MAPK) and the activated MAPK (ERK) was incubated with substrate (MBP peptide or MYC peptide) in the presence of ATP, Mg^+2 and radiolabeled ^33P ATP. The phosphorylated peptide was captured on a P 81 phosphocellulose filter (paper filter or embedded in microtiter plate) washed and counted by scintillation methods.
The peptide substrates used in the assay are MBP, peptide substrate ([sequence]), or synthetic Myc substrate, ([sequence]•5 TFA. The recombinant enzymes used were prepared as GST fusion proteins of human ERK 2 and human MEK 1. Inhibitor samples were prepared as 10X stocks in 10% DMSO and an appropriate aliquot was used to deliver either 10 ug/ml for a single point screening dose or 100, 10, 1, and 0.1 uM final concentration for a dose response curve. Final DMSO concentrations were less than or equal to 1%.
The reaction was run as follows in 50 mM Tris kinase buffer, pH 7.4 in a reaction volume of 50 ul. The appropriate volume of kinase buffer and inhibitor sample was added to the tube. Appropriate dilution of enzyme was delivered to give 2-5 ug recombinant MAPK (Erk ) per tube. The inhibitor was incubated with MAPK (Erk) for 30 min at 0° C. Recombinant Mek (MAPKK) ( 0.5-2.5 ug) or fully activated Mek (0.05-0.1 units) was added to activate the Erk and incubated for 30 min at 30° C. Then substrate and gamma ^33P ATP was were added to give a final concentration of 0.5- 1 mM MBPP or 250-500 uM Myc; 0.2-0.5 uCi gamma P 33 ATP/tube; 50 µM ATP final concentration. Samples were incubated at 30°C for 30 minutes and the reaction was stopped by adding 25 µl of ice cold 10 %TCA .After samples were chilled on ice for 30 min, 20 µl of sample was transferred onto P 81 phosphocellulose filter paper or appropriate MTP with embedded P 81 filter. Filter papers or MTP were washed 2 times with a large volume of 1% acetic acid, then 2 times with water. The filters or MTP were briefly air dried before addition of scintillant and samples were counted in the appropriate scintillation counter set up for reading ^33P isotope.
The raw data was captured as cpm. Sample replicates were averaged and corrected for background count. Mean cpm data was tabulated by group and % inhibition by a test compound was calculated as (corrected cpm control- corrected. cpm sample/control) X 100 = % inhibition.

[4] = target: T2, epidermal growth factor receptor kinase (EGF-R Kinase, recombinant enzyme; His-tagged cytoplasmic domain of EGFR) (Homo sapiens, UniProt P00533); assay: Inhibition of Epidermal Growth Factor Receptor Kinase (EGF-R) using recombinant enzyme, RR-SRC peptide phosphorylation, 33P-ATP; assay type: biochemical; conditions: for inhibition at 0.5 µM: read-out: %Inh @ 0.5 µM; for IC50: recombinant enzyme, 90 min at room temperature
T2 construct: EGFR cDNA encoding amino acids 645 - 1186 preceded by Met-Ala-(His)6; Met-Ala-(His)6 (N); made in house; host or cells: Sf9 insect cells, recombinant baculovirus vHcEGFR52
T2 sequence (P00533 669-1210): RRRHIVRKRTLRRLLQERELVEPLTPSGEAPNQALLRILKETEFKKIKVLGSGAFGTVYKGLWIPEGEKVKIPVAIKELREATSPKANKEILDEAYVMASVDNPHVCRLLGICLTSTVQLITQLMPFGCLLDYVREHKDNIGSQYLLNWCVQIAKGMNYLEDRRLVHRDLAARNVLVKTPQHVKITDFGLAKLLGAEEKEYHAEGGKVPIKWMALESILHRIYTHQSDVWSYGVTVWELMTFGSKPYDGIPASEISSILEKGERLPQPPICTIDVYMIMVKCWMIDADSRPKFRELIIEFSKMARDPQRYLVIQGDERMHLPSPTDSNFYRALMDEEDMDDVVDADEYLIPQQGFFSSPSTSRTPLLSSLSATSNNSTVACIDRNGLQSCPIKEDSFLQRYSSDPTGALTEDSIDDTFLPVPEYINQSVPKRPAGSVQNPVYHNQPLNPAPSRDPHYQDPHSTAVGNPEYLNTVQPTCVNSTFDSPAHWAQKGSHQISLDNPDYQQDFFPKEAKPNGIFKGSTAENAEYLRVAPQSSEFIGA
Procedure: Representative test compounds were evaluated for their ability to inhibit the phosphorylation of the tyrosine residue of a peptide substrate catalyzed by the enzyme epidermal growth factor receptor kinase. The peptide substrate (RR-SRC) has the sequence arg-arg-leu-ile-glu-asp-ala-glu-tyr-ala-ala-arg-gly. The enzyme used in this test procedure is the His-tagged cytoplasmic domain of EGFR. A recombinant baculovirus (vHcEGFR52) was constructed containing the EGFR cDNA encoding amino acids 645 - 1186 preceded by Met-Ala-(His)6. Sf9 cells in 100 mm plates were infected at an moi of 10 pfu/cell and cells were harvested 48 h post infection. A cytoplasmic extract was prepared using 1% Triton X-100 and applied to Ni-NTA column. After washing the column with 20 mM imidazole, HcEGFR was eluted with 250 mM imidazole (in 50 mM Na2HPO4, pH 8.0, 300 mM NaCl). Fractions collected were dialyzed against 10 mM HEPES, pH 7.0, 50 mM NaCl, 10% glycerol, lug/mL antipain and leupeptin and 0.1 mM Pefabloc SC. The protein was frozen in dry ice/methanol and stored -70°C.
Test compounds were made into 10 mg/mL stock solutions in 100% dimethylsulfoxide (DMSO). Prior to experiment, stock solutions were diluted to 500 uM with 100% DMSO and then serially diluted to the desired concentration with HEPES buffer (30 mM HEPES pH 7.4).
For the enzyme reaction, 10 uL of each inhibitor (at various concentrations) were added to each well of a 96-well plate. To this was added 3 uL of enzyme (1:10 dilution in 10mM HEPES, pH 7.4 for final cone. of 1:120). This was allowed to sit for 10 min on ice and was followed by the addition of 5 ul peptide (80 uM final cone.), 10ul of 4X Buffer (Table A), 0.25 uL ^33P-ATP and 12 uL H2O. The reaction was allowed to run for 90 min at room temperature and was followed by spotting the entire volume on to precut P81 filter papers. The filter discs were washed 2X with 0.5% phosphoric acid and radioactivity was measured using a liquid scintillation counter.
The inhibition data for representative compounds of the invention are shown below in TABLE 1. […] The % inhibition of the test compound was determined for at least three different concentrations and the IC50 value was evaluated from the dose response curve. […] CPM(control) is in units of counts per minute and was a number expressing the amount of radiolabled ATP (γ-^33P) incorporated into the RR-SRC peptide substrate by the enzyme after 90 minutes at room temperature in the absence of test compound as measured by liquid scintillation counting. The CPM values were corrected for the background counts produced by ATP in the absence of the enzymatic reaction. […]

Compound | IC50 [1] [µM] | IC50 µg/mL 3T3 (3T3) [µg/mL] | IC50 µg/mL 3T3/c-erbb2 (3T3/c-erbb2) [µg/mL] | IC50 µg/mL MDA-MB-435 (MDA-MB-435) [µg/mL] | IC50 µg/mL SW620 (SW620) [µg/mL] | IC50 µg/mL A431 (A431) [µg/mL] | IC50 µg/mL SK-BR3 (SK-BR3) [µg/mL] | IC50 [2] | IC50 ([3]; read-out: Mek-Erk) | IC50 (3T3) [µg/mL] | IC50 (3T3/c-erbb2) [µg/mL] | IC50 (MDA-MB-435) [µg/mL] | IC50 (SW620) [µg/mL] | IC50 (A431) [µg/mL] | IC50 (SK-BR3) [µg/mL] | IC50 ([3]; read-out: Mek-Erk µM) [µM] | inhibition at 0.5 µM [4] [%] | IC50 [4] [µM]
4-(2,3-Dihydro-benzo[1,4]dioxin-6-ylamino)-6,7-diethoxy-quinoline-3-carbonitrile [Example 105] | > 51.1 | 0.853 | 0.375 | 0.235 | 0.411 | 0.270 | 0.281 | 76.6 µM | – | – | – | – | – | – | – | – | – | –
6,7-Diethoxy-4-(1-oxo-indan-5-ylamino)-quinoline-3-carbonitrile [Example 110] | – | 0.0923 | 0.0311 | 0.0280 | 0.0181 | 0.0244 | 0.0281 | – | > 100 µM and 50 µM | – | – | – | – | – | – | – | – | –
COCCOc1cc2ncc(C#N)c(Nc3ccc4cn[nH]c4c3)c2cc1OCCOC [Example 106, 4-(1H-Indazol-6-ylamino)-6,7-bis-(2-methoxy-ethoxy)-quinoline-3-carbonitrile] | > 46.1 | – | – | – | – | – | – | 23.1 µM | – | > 5 | > 5 | 2.04 (≈ 4.72 µM) | > 5 | 1.96 (≈ 4.52 µM) | > 5 | – | – | –
CCOc1cc2ncc(C#N)c(Nc3ccc4c(=O)[nH][nH]c(=O)c4c3)c2cc1OCC [Example 107, 4-(1,4-Dioxo-1,2,3,4-tetrahydro-phthalazin-6-ylamino)-6,7-diethoxy-quinoline-3-carbonitrile] | > 47.9 | – | – | – | – | – | – | > 71.9 µM | – | > 5 | > 5 | > 5 | > 5 | > 5 | > 5 | – | – | –
CCOc1cc2ncc(C#N)c(Nc3ccc4c(c3)CCC4)c2cc1OCC [Example 108, 6,7-Diethoxy-4-(indan-5-ylamino)-quinoline-3-carbonitrile] | > 2.68 | – | – | – | – | – | – | > 80.3 µM | – | 0.525 (≈ 1.41 µM) | 0.0198 (≈ 0.053 µM) | 0.352 (≈ 0.943 µM) | < 0.0005 | 0.342 (≈ 0.916 µM) | 0.294 (≈ 0.787 µM) | – | – | –
CCOc1cc2ncc(C#N)c(Nc3ccc4[nH]c(=O)oc(=O)c4c3)c2cc1OCC [Example 109, 4-(2,4-Dioxo-1,4-dihydro-2H-benzo[d][1,3]oxazin-6-ylamino)-6,7-diethoxy-quinoline-3-carbonitrile] | > 47.8 | – | – | – | – | – | – | 23.9 µM | – | > 5 | 4.62 (≈ 11 µM) | > 5 | 2.92 (≈ 6.98 µM) | > 5 | > 5 | > 100 | – | –
COc1ccc2ncc(C#N)c(Nc3ccc4nn[nH]c4c3)c2c1 [Example 142, 4-(3H -Benzotriazol-5-ylamino)-6-methoxy-quinoline-3-carbonitrile] | > 31.6 | – | – | – | – | – | – | 94.8 µM | 30 µM | – | – | – | – | – | – | – | 24 | > 1
COc1ccc2c(Nc3ccc4nn[nH]c4c3)c(C#N)cnc2c1 [Example 144, 4-(3H -benzotriazol-5-ylamino)-7-methoxy-quinoline-3-carbinitile] | > 31.6 | – | – | – | – | – | – | > 94.8 µM and 94.8 µM | – | – | – | – | – | – | – | > 100 | 14 | > 1
COc1cccc2c(Nc3ccc4cn[nH]c4c3)c(C#N)cnc12 [Example 148, 4-(1H -Indazol-6-ylamino)-8-methoxy-quinoline-3-carbonitrile] | > 63.4 | – | – | – | – | – | – | > 95.1 µM | > 100 µM | – | – | – | – | – | – | – | 11 | > 1
COc1cccc2c(Nc3ccc4nn[nH]c4c3)c(C#N)cnc12 [Example 149, 4-(3H -benzotriazol-5-ylamino)-8-methoxy-quinoline-3-carbonitrile] | > 31.6 | – | – | – | – | – | – | > 94.8 µM | – | – | – | – | – | – | – | > 100 | 9 | > 1
COc1cc2ncc(C#N)c(Nc3ccc4ncccc4c3)c2cc1OC [Example 153, 6,7-Dimethoxy-4-(quinoline-6-ylamino)-quinoline-3-carbonitrile] | > 28.1 | – | – | – | – | – | – | > 28.1 µM | > 100 µM | – | – | – | – | – | – | – | 14 | > 1
COc1cc2c(Nc3ccc4nn[nH]c4c3)c(C#N)cnc2c(OC)c1OC [Example 156, 4-(3H-Benzotriazol-5-ylamino)-6,7,8-Trimethoxy-quinoline-3-carbonitrile] | > 26.6 | – | – | – | – | – | – | > 79.7 µM | – | – | – | – | – | – | – | 35 | 34 | > 1
